From patent publication US11851411B2, “Herbicidal compounds” (SYNGENTA CROP PROTECTION AG, priority 2018, dated 2023)

Columns and labels:
Assay type in all cases: in vivo
[1] = system: Abutilon theophrasti (ABUTH); test: Glasshouse herbicide test, pre-emergence; conditions: PRE Application; 500 g/h; evaluated after 13 days
Procedure: (§1) Seeds of a variety of test species are shown in standard soil in pots (Lolium perenne (LOLPE), Amaranthus retoflexus (AMARE), Abutilon theophrasti (ABUTH), Setaria faberi (SETFA), Echinochloa crus-galli (ECHCG), Ipomoea hederacea (IPOHE)). After cultivation for one day (pre-emergence) or after 8 days cultivation (post-emergence) under controlled conditions in a glasshouse (at 24/16° C., day/night; 14 hours light; 65% humidity), the plants are sprayed with an aqueous spray solution derived from the formulation of the technical active ingredient in acetone/water (50:50) solution containing 0.5% Tween 20 (polyoxyethelyene sorbitan monolaurate, CAS RN 9005-64-5). Compounds are applied at 500 g/h. The test plants are then grown in a glasshouse under controlled conditions in a glasshouse (at 24/16° C., day/night; 14 hours light; 65% humidity) and watered twice daily. After 13 days for pre and post-emergence, the test is evaluated for the percentage damage caused to the plant. The biological activities are shown in the following table on a five point scale (5=80-100%; 4=60-79%; 3=40-59%; 2=20-39%; 1=0-19%).

[2] = system: Ipomoea hederacea (IPOHE); test: Glasshouse herbicide test, pre-emergence; conditions: PRE Application; 500 g/h; evaluated after 13 days
Procedure: as §1

[3] = system: Echinochloa crus-galli (ECHCG); test: Glasshouse herbicide test, pre-emergence; conditions: PRE Application; 500 g/h; evaluated after 13 days
Procedure: as §1

Setaria faberi (SETFA) [4] = test: Glasshouse herbicide test, pre-emergence; conditions: PRE Application; 500 g/h; evaluated after 13 days
Procedure: as §1

[5] = system: Amaranthus retoflexus (AMARE); test: Glasshouse herbicide test, pre-emergence; conditions: PRE Application; 500 g/h; evaluated after 13 days
Procedure: as §1

[6] = system: Abutilon theophrasti (ABUTH); test: Glasshouse herbicide test, post-emergence; conditions: POST Application; 500 g/h; evaluated after 13 days
Procedure: as §1

[7] = system: Ipomoea hederacea (IPOHE); test: Glasshouse herbicide test, post-emergence; conditions: POST Application; 500 g/h; evaluated after 13 days
Procedure: as §1

[8] = system: Echinochloa crus-galli (ECHCG); test: Glasshouse herbicide test, post-emergence; conditions: POST Application; 500 g/h; evaluated after 13 days
Procedure: as §1

Setaria faberi (SETFA) [9] = test: Glasshouse herbicide test, post-emergence; conditions: POST Application; 500 g/h; evaluated after 13 days
Procedure: as §1

[10] = system: Amaranthus retoflexus (AMARE); test: Glasshouse herbicide test, post-emergence; conditions: POST Application; 500 g/h; evaluated after 13 days
Procedure: as §1

| Compound | percentage damage caused to the plant, five point scale, ABUTH [1] | percentage damage caused to the plant, five point scale, IPOHE [2] | percentage damage caused to the plant, five point scale, ECHCG [3] | percentage damage caused to the plant, five point scale, SETFA (Setaria faberi (SETFA) [4]) | percentage damage caused to the plant, five point scale, AMARE [5] | percentage damage caused to the plant, five point scale, ABUTH [6] | percentage damage caused to the plant, five point scale, IPOHE [7] | percentage damage caused to the plant, five point scale, ECHCG [8] | percentage damage caused to the plant, five point scale, SETFA (Setaria faberi (SETFA) [9]) | percentage damage caused to the plant, five point scale, AMARE [10] |
| --- | --- | --- | --- | --- | --- | --- | --- | --- | --- | --- |
| CON(C(C)=O)c1c(S(C)(=O)=O)ccc(C(=O)Nc2nnnn2C)c1Cl [Compound 1.007] | 5 (5=80-100%) | 5 (5=80-100%) | 5 (5=80-100%) | 3 (3=40-59%) | 5 (5=80-100%) | 5 (5=80-100%) | 5 (5=80-100%) | 5 (5=80-100%) | 5 (5=80-100%) | 5 (5=80-100%) |
| CCn1nnnc1NC(=O)c1ccc(S(C)(=O)=O)c(N(OC)C(C)=O)c1Cl [Compound 1.008] | 5 (5=80-100%) | 5 (5=80-100%) | 5 (5=80-100%) | 5 (5=80-100%) | 5 (5=80-100%) | 5 (5=80-100%) | 5 (5=80-100%) | 5 (5=80-100%) | 5 (5=80-100%) | 5 (5=80-100%) |
| CCCn1nnnc1NC(=O)c1ccc(S(C)(=O)=O)c(N(OC)C(C)=O)c1Cl [Compound 1.009, 3-[acetyl(methoxy)amino]-2-chloro-4-methylsulfonyl-N-(1-propyltetrazol-5-yl)benzamide] | 5 (5=80-100%) | 5 (5=80-100%) | 5 (5=80-100%) | 4 (4=60-79%) | 5 (5=80-100%) | 5 (5=80-100%) | 5 (5=80-100%) | 5 (5=80-100%) | 5 (5=80-100%) | 5 (5=80-100%) |
| CON(C(=O)OC(C)(C)C)c1c(C(F)(F)F)ccc(C(=O)Nc2nnnn2C)c1Cl [Compound 1.025] | 5 (5=80-100%) | 5 (5=80-100%) | 5 (5=80-100%) | 5 (5=80-100%) | 5 (5=80-100%) | 5 (5=80-100%) | 5 (5=80-100%) | 5 (5=80-100%) | 5 (5=80-100%) | 5 (5=80-100%) |
| CON(C(=O)OC(C)(C)C)c1c(S(C)(=O)=O)ccc(C(=O)Nc2nnnn2C)c1Cl [Compound 1.031] | 5 (5=80-100%) | 5 (5=80-100%) | 5 (5=80-100%) | 5 (5=80-100%) | 5 (5=80-100%) | 5 (5=80-100%) | 5 (5=80-100%) | 5 (5=80-100%) | 5 (5=80-100%) | 5 (5=80-100%) |
